Data published in patent US20230174562A1, “RADIO-AND CHEMO-PROTECTIVE COMPOUNDS” (TONIX PHARMACEUTICALS, INC., priority 2020, published 2023).

Legend:
[1] = administered orally; cited from earlier work
mice = assay: Phase 1 maximum tolerated dose (MTD) determination in mice; type: in vivo; details: male mice; oral gavage; 1,000 mg/kg
Protocol: (§1) Male mice were randomized and assessed in two phases: 1) for maximum tolerated doses (MTDs) of PrC-210, DzCH2SH, and 2Pip-2PrSH to determine dose levels for the efficacy study and 2) to evaluate the efficacy of the compounds when administered 60±5 minutes prior to exposure to total body irradiation (TBI) at an LD100/30 dose (990 cGy) (Tables 1 and 2).
(§2) For Phase 1 or 2, sterile water (vehicle), PrC-210, DzCH2SH, and 2Pip2PrSH were administered at 10 mL/kg calculated based on the most recent body weight via oral gavage. Animals were not fasted prior to administration of the compounds or vehicle. Mice in Phase 1 were administered the dose on Day 1 and mice in Phase 2 were administered the dose 60±5 minutes prior to TBI on Day 0.
(§3) All surviving animals were observed once daily for clinical signs (e.g., unusually low or high activity, lethargy, shivering, appearance of fur, bloody and water stool, and other symptoms of moribundity) at 1-2 hours post-irradiation and/or post-dose and once daily on non-dosing days until Day 4 (Phase 1) or Day 30 (Phase 2).
In Phase 1 (Table 1), all animals were normal when observed and all body weights were within normal range. The dose level of 1000 mg/kg was selected for Phase 2.

[2] = system: mice exposed to total body irradiation (TBI); assay: Phase 2 efficacy: survival of mice dosed before total body irradiation (TBI) at LD100/30; type: in vivo; details: for Survival: Day 30, 11 animals; for Survival / median survival time: male mice, 1000 mg/kg oral gavage 60±5 min before TBI 9.9 Gy (LD100/30); for body weight gain on Days 5 to 9: compared to the vehicle group (Group 13); for number of animals survived until scheduled sacrifice (Day 30) / number of mice found dead / number of mice moribund sacrificed: of 11 mice
Protocol: as §1, §2
Irradiation was administered once to the whole body. TBI of mice were performed using a 6 MV LINAC photon source (TrueBeam STx source). Animals were irradiated at a dose rate of up to 80 cGy/min to the midline of the animals. The source irradiated animals to 50% of the dose from anterior-posterior direction and […] from the posterior-anterior direction. Dose measurements were performed with a PTW 31010 0.1 cc Semiflex Ion chamber.
as §3
In Phase 2 (Table 2), survival curves of mice treated with vehicle, PrC-210, DzCH2SH or 2Pip-PrSH prior to TBI with 9.9 Gy were measured (FIG. 1). […] Five mice were moribund sacrificed, and 6 mice were found dead. Survival in the Group 13 animals was 0% and median survival time was 8 days. In mice administered with PrC-210 before TBI (Group 14), 4 animals survived until scheduled sacrifice (Day 30) while 7 mice were moribund sacrificed. […] In mice administered with DzCH2SH before TBI (Group 15), 3 animals survived until scheduled sacrifice (Day 30) while 7 mice were moribund sacrificed, and one mouse was found dead. […] Five mice were moribund sacrificed and six mice were found dead. Survival in the Group 16 mice was 0% and median survival time was 10 days.

[3] = Hygroscopicity on 10 minute exposure to the atmosphere; type: physicochemical; details: 10 minute exposure of a small amount to the atmosphere; diHCl salt
Protocol: In Reaction E: 48 ml of HCl in methanol, 6 eq. (1.25 M solution, Aldrich #17935) was added to a solution of compound V, 3.5 g, 0.010 moles dissolved in 10 ml dry methanol in a flask under argon and equipped for magnetic stirring and the reaction was stirred at room temperature for 24 hours. […] The solution was degassed by gently bubbling argon into the solution for 30 minutes. Concentration (rotary evaporator at ambient temperature) provided a crude oily residue which was triturated with hexane producing a white solid. The hexane was removed (via pipette suction) and replaced with dry THF (25 ml). After an additional 10 minutes of trituration, the THF was removed and replaced with dry hexane (25 ml). After an additional 10 minutes of trituration, the hexane was removed and the resulting white solid was dried in vacuo over P2O5 providing 1.95 grams of diHCl salt of PrC-210 (88%). […]
In Reaction P: Compound XVI, 2.2 grams, 0.0058 moles was placed in a round-bottom flask equipped for magnetic stirring followed by 15 mL anhydrous trifluoroacetic acid (CF3COOH, Aldrich #8.08260). The flask was fitted with a condenser and the solution was refluxed for 5 hours whereupon it was determined that the reaction was complete using TLC by observing the disappearance of starting material and the appearance of a highly polar product, which stained positive with ninhydrin. […]

[4] = 1000 mg/kg oral gavage before TBI 9.9 Gy
[5] = after 1000 mg/kg oral gavage and TBI 9.9 Gy, 11 per group
[6] = after 1000 mg/kg oral gavage and TBI 9.9 Gy

NCCCNCCSP(=O)(O)O [Amifostine, amifostine]
efficacy as a radioprotector [1]: lacks efficacy

CC(C)(S)C1CNCCN1 (stereo not shown) [Compound 2Pip-2PrSH, 2-(piperazin-2-yl)propane-2-thiol]
toxicity at the highest tested dose (mice): did not produce any toxicity | survival compared to vehicle (Group 13) by Chi-square test [2, 4]: not statistically significantly different | survival compared to vehicle (Group 13) by Log-rank (Mantel-Cox) test [2, 4]: statistically significantly higher | Survival [2]: 0% | number of animals with cold to touch skin [2, 5]: 4 | number of animals with eye discharge [2, 5]: one | number of animals with hypoactivity [2, 5]: 5 | number of animals with swollen eye [2, 5]: one | number of mice with lethargy [2, 5]: one | number of mice with swollen head [2, 5]: one | body weight gain on Days 5 to 9 [2, 6]: did not gain body weights | median survival time [2]: 10 days | number of animals survived until scheduled sacrifice (Day 30) [2, 4]: no animals survived | number of mice found dead [2, 4]: six | number of mice moribund sacrificed [2, 4]: Five

SCC1CNCCNC1 [Compound 22, (1,4-diazepan-6-yl)methanethiol]
toxicity at the highest tested dose (mice): did not produce any toxicity | mortality rate at 8-days post-irradiation ([2]; 1000 mg/kg oral gavage before TBI): efficacious effects | survival compared to vehicle (Group 13) by Log-rank (Mantel-Cox) test [2, 4]: statistically significantly higher | Survival [2]: 27.3% | number of animals with cold to touch skin [2, 5]: one | number of animals with eye cloudy [2, 5]: 2 | number of animals with eye discharge [2, 5]: 2 | number of animals with hypoactivity [2, 5]: 5 | number of animals with sunken eye [2, 5]: 1 | number of animals with swollen eye [2, 5]: 2 | number of mice with eye opacity [2, 5]: one | number of mice with labored breathing [2, 5]: one | number of mice with lethargy [2, 5]: one | number of mice with swollen head [2, 5]: one | body weight gain on Days 5 to 9 [2, 6]: did not gain body weights | median survival time [2]: 11 days | number of animals survived until scheduled sacrifice (Day 30) [2, 4]: 3 | number of mice found dead [2, 4]: one | number of mice moribund sacrificed [2, 4]: 7 | survival of animals through 30 days post exposure ([2]; treated prior to total body irradiation (LD100/30)): increased survival | hygroscopicity [3]: did not show any signs of hygroscopicity
